# From patent US7183260B2, “C-terminal modified oxamyl dipeptides as inhibitors of the ICE/ced-3 family of cysteine proteases” (Idun Pharmaceuticals, Inc., priority 1998, dated 2007)
# pKi: −log10 of the molar value. Read-outs that look alike come from different tables or passages of the source.
# Experiments:
# Type in all cases: biochemical
# mICE = biological target: T1, mICE (Mus musculus, UniProt P29452); experiment: Dissociation constant Ki and irreversible rate constant k3 for irreversible inhibitors (ICE)
# T1 sequence (P29452 123-296 limits assumed): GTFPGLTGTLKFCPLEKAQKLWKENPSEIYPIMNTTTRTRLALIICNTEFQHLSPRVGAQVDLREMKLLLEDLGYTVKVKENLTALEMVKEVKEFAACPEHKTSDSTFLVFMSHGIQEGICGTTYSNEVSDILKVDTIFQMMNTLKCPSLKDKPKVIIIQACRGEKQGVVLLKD
# T1 sequence (P29452 315-402 limits assumed): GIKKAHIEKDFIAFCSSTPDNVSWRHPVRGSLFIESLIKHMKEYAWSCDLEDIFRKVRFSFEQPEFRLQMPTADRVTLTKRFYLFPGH
# CPP32 = biological target: T2, CPP32 (Homo sapiens, UniProt P42574); experiment: Dissociation constant Ki and irreversible rate constant k3 for irreversible inhibitors (CPP32)
# T2 sequence (P42574 29-175 limits assumed): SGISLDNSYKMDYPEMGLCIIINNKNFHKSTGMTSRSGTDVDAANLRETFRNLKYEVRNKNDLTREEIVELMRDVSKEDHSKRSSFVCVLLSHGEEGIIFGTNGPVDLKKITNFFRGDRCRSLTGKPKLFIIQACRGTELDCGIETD
# T2 sequence (P42574 176-277 limits assumed): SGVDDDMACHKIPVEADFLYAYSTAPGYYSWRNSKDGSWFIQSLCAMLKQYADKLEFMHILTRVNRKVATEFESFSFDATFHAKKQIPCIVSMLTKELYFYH
# MCH-2 = biological target: T3, MCH-2 (Homo sapiens, UniProt P55212); experiment: Dissociation constant Ki and irreversible rate constant k3 for irreversible inhibitors (Mch2)
# T3 sequence (P55212 24-179 limits assumed): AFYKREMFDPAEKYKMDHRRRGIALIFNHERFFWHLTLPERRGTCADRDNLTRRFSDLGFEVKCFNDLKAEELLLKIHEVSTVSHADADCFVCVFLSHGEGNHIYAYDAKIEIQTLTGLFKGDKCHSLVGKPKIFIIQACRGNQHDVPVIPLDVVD
# T3 sequence (P55212 194-293 limits assumed): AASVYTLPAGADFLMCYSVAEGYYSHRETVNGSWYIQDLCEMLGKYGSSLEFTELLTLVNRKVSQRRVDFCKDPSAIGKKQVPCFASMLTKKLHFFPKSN
# MCH-5 = MCH-5 (Homo sapiens, UniProt Q14790); experiment: Dissociation constant Ki and irreversible rate constant k3 for irreversible inhibitors (Mch5)
# Chain of MCH-5 (Q14790 217-374 limits assumed, species assumed): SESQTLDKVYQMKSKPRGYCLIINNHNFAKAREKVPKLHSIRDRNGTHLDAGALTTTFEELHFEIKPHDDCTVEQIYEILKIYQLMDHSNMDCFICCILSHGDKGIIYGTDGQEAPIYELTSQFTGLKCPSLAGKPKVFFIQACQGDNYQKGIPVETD
# Chain of MCH-5 (Q14790 385-479 limits assumed, species assumed): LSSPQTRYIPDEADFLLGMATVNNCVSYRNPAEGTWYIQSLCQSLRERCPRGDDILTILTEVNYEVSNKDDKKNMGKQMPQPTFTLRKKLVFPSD
# [1] = continuous assay 60 min, reaction initiated by adding enzyme to substrate-inhibitor mixture
SMILES,pKi (mICE; [1]),mICE k3/Ki (mICE; [1]),CPP32 k3/Ki (CPP32; [1]),pKi (CPP32; [1]),pKi (MCH-2; [1]),MCH-2 k3/Ki (MCH-2; [1]),pKi (MCH-5; [1]),MCH-5 k3/Ki (MCH-5; [1]),pKi (mICE),mICE k3/Ki (mICE),CPP32 k3/Ki (CPP32),pKi (CPP32),pKi (MCH-2),MCH-2 k3/Ki (MCH-2),pKi (MCH-5),MCH-5 k3/Ki (MCH-5)
CC(C)[C@H](NC(=O)C(=O)Nc1ccccc1Br)C(=O)N[C@@H](CC(=O)O)C(=O)COc1c(F)c(F)cc(F)c1F [Example 106],8.05,"1,080,000 moles^−1 seconds^−1","276,000 moles^−1 seconds^−1",7.20,7.72,"230,000 moles^−1 seconds^−1",8.47,"1,305,000 moles^−1 seconds^−1",,,,,,,,
C[C@H](NC(=O)C(=O)Nc1ccccc1C(C)(C)C)C(=O)N[C@@H](CC(=O)O)C(=O)COP(=O)(c1ccccc1)c1ccccc1 [Example 32],7.01,"159,000 moles^−1 seconds^−1","327,000 moles^−1 seconds^−1",7.47,7.80,"275,000 moles^−1 seconds^−1",8.00,"282,000 moles^−1 seconds^−1",,,,,,,,
CC(C)[C@H](NC(=O)C(=O)Nc1nc2ccccc2[nH]1)C(=O)N[C@@H](CC(=O)O)C(=O)COc1c(F)c(F)cc(F)c1F [Example 88],6.44,"27,400 moles^−1 seconds^−1","3,130 moles^−1 seconds^−1",5.50,5.84,"1,840 moles^−1 seconds^−1",6.89,"20,800 moles^−1 seconds^−1",,,,,,,,
CC(C)[C@H](NC(=O)C(=O)Nc1cccc2ccccc12)C(=O)N[C@@H](CC(=O)O)C(=O)COc1c(F)cc(F)cc1F [Example 6],8.06,,,7.41,7.38,,8.28,,,,,,,,,
C[C@H](NC(=O)C(=O)NCc1cccc2ccccc12)C(=O)N[C@@H](CC(=O)O)C(=O)COP(=O)(c1ccccc1)c1ccccc1 [Example 35],7.46,"191,000 moles^−1 seconds^−1","245,000 moles^−1 seconds^−1",7.66,7.96,"186,000 moles^−1 seconds^−1",7.64,"82,700 moles^−1 seconds^−1",,,,,,,,
C[C@H](NC(=O)C(=O)NC12CC3CC(CC(C3)C1)C2)C(=O)N[C@@H](CC(=O)O)C(=O)COC(=O)c1c(Cl)cccc1Cl [Example 54],,,,,,,,,6.46,"46,000 moles^−1 seconds^−1","20,500 moles^−1 seconds^−1",6.39,6.92,"21,100 moles^−1 seconds^−1",7.10,"18,700 moles^−1 seconds^−1"
C[C@H](NC(=O)C(=O)NCCc1ccccc1)C(=O)N[C@@H](CC(=O)O)C(=O)COP(=O)(c1ccccc1)c1ccccc1 [Example 72],7.92,"1,230,000 moles^−1 seconds^−1","169,000 moles^−1 seconds^−1",7.03,7.59,"131,000 moles^−1 seconds^−1",8.09,"667,000 moles^−1 seconds^−1",,,,,,,,
CC(C)[C@H](NC(=O)C(=O)NC12CC3CC(CC(C3)C1)C2)C(=O)N[C@@H](CC(=O)O)C(=O)COc1c(F)c(F)cc(F)c1F [Example 89],7.28,"184,000 moles^−1 seconds^−1","6,330 moles^−1 seconds^−1",5.82,6.82,"10,700 moles^−1 seconds^−1",7.40,"59,900 moles^−1 seconds^−1",,,,,,,,
CC(C)[C@H](NC(=O)C(=O)Nc1c(F)c(F)nc(F)c1F)C(=O)N[C@@H](CC(=O)O)C(=O)COc1c(F)c(F)cc(F)c1F [Example 102],7.85,"1,220,000 moles^−1 seconds^−1","153,000 moles^−1 seconds^−1",6.90,7.66,"170,000 moles^−1 seconds^−1",8.00,"389,000 moles^−1 seconds^−1",,,,,,,,
C[C@H](NC(=O)C(=O)Nc1cc(C(C)(C)C)ccc1C(C)(C)C)C(=O)N[C@@H](CC(=O)O)C(=O)COP(=O)(c1ccccc1)c1ccccc1 [Example 59],7.35,"211,000 moles^−1 seconds^−1","104,000 moles^−1 seconds^−1",7.15,7.82,"308,000 moles^−1 seconds^−1",8.26,"1,340,000 moles^−1 seconds^−1",,,,,,,,
C[C@H](NC(=O)C(=O)NCc1ccccc1)C(=O)N[C@@H](CC(=O)O)C(=O)COc1c(F)c(F)cc(F)c1F [Example 51],6.00,"13,900 moles^−1 seconds^−1","54,300 moles^−1 seconds^−1",6.43,7.15,"42,800 moles^−1 seconds^−1",7.08,"23,100 moles^−1 seconds^−1",,,,,,,,
C[C@H](NC(=O)C(=O)Nc1ccc(F)cc1)C(=O)N[C@@H](CC(=O)O)C(=O)COP(=O)(c1ccccc1)c1ccccc1 [Example 43],7.89,"956,000 moles^−1 seconds^−1","268,000 moles^−1 seconds^−1",7.28,8.05,"424,000 moles^−1 seconds^−1",8.44,"2,300,000 moles^−1 seconds^−1",,,,,,,,
C[C@H](NC(=O)C(=O)Nc1cc(C(C)(C)C)ccc1C(C)(C)C)C(=O)N[C@@H](CC(=O)O)C(=O)COC(=O)c1c(Cl)cccc1Cl [Example 60],7.59,"289,000 moles^−1 seconds^−1","189,000 moles^−1 seconds^−1",7.24,7.31,"146,000 moles^−1 seconds^−1",7.85,"306,000 moles^−1 seconds^−1",,,,,,,,
CC(C)[C@H](NC(=O)C(=O)Nc1ccccc1-c1ccccc1)C(=O)N[C@@H](CC(=O)O)C(=O)COc1c(F)c(F)cc(F)c1F [Example 83],6.87,"127,000 moles^−1 seconds^−1","25,400 moles^−1 seconds^−1",6.60,7.07,"31,700 moles^−1 seconds^−1",7.52,"65,300 moles^−1 seconds^−1",,,,,,,,
C[C@H](NC(=O)C(=O)Nc1ccccc1Cl)C(=O)N[C@@H](CC(=O)O)C(=O)COC(=O)c1c(Cl)cccc1Cl [Example 58],7.27,"278,000 moles^−1 seconds^−1","323,000 moles^−1 seconds^−1",7.37,7.74,"281,000 moles^−1 seconds^−1",8.15,"396,000 moles^−1 seconds^−1",,,,,,,,
C[C@H](NC(=O)C(=O)Nc1ccccc1-c1ccccc1)C(=O)N[C@@H](CC(=O)O)C(=O)COP(=O)(c1ccccc1)c1ccccc1 [Example 30],7.66,"345,000 moles^−1 seconds^−1","243,000 moles^−1 seconds^−1",7.38,7.60,"317,000 moles^−1 seconds^−1",7.62,"207,000 moles^−1 seconds^−1",,,,,,,,
CC(C)[C@H](NC(=O)C(=O)Nc1cnccn1)C(=O)N[C@@H](CC(=O)O)C(=O)COc1c(F)c(F)cc(F)c1F [Example 103],8.28,,,7.22,7.77,,8.33,,,,,,,,,
CC(C)[C@H](NC(=O)C(=O)Nc1cccc2ccccc12)C(=O)N[C@@H](CC(=O)O)C(=O)COc1c(-c2ccccc2)oc2ccccc2c1=O [Example 9],6.89,"82,100 moles^−1 seconds^−1","43,600 moles^−1 seconds^−1",7.23,6.47,,6.34,0 mol⁻¹ s⁻¹,,,,,,,,
CCCCCCCc1ccc(NC(=O)C(=O)N[C@H](C(=O)N[C@@H](CC(=O)O)C(=O)COc2c(F)c(F)cc(F)c2F)C(C)C)cc1 [Example 94],7.62,"657,000 moles^−1 seconds^−1","11,200 moles^−1 seconds^−1",5.95,7.23,"50,000 moles^−1 seconds^−1",7.92,"155,000 moles^−1 seconds^−1",,,,,,,,
C[C@H](NC(=O)C(=O)Nc1ccccc1Cl)C(=O)N[C@@H](CC(=O)O)C(=O)COP(=O)(c1ccccc1)c1ccccc1 [Example 41],6.85,"103,000 moles^−1 seconds^−1","162,000 moles^−1 seconds^−1",7.46,7.96,"247,000 moles^−1 seconds^−1",7.57,"179,000 moles^−1 seconds^−1",,,,,,,,
Cc1cc(OCC(=O)[C@H](CC(=O)O)NC(=O)[C@@H](NC(=O)C(=O)Nc2cccc3ccccc23)C(C)C)cc(=O)o1 [Example 8],,,,7.59,6.60,,7.54,,,,,,,,,
C/C=C/OC(=O)Oc1ccc(OCC(=O)[C@H](CC(=O)O)NC(=O)[C@@H](NC(=O)C(=O)Nc2cccc3ccccc23)C(C)C)cc1 [Example 16],8.02,,,,7.37,,,,,,,,,,,
